The results in this text go back to patent US9593108B2, “Compounds and methods for antiviral treatment” (PTC Therapeutics, Inc., priority 2009, dated 2017).

What is called IC50 is the concentration needed to halve the response being measured. What is called melting point is the temperature of the solid-liquid transition.

Molecules are shown by their SMILES.

The test system of series [1] is HCV replicon RNA (GenBank Accession No. AJ242654). Description: HCV Replicon Assay (replicon RNA reduction and/or Fluc reporter signal). Type of series: cell-based, Hepatitis C virus. The conditions noted are these: Hepatitis C virus, 72 h, replicon-containing cells cultured with test compound for up to 3 days. The essentials: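 Bicistronic replicon-containing cells cultured with compound for up to 3 days, with interferon as positive control. Inhibition quantified by replicon RNA reduction and/or Fluc reporter signal; IC50 values generally derived from replicon RNA reduction.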
(In general: Replicon systems follow genome replication, usually without infectious particles.)

`COc1ccc2c(C#N)c(-c3ncc(S(=O)(=O)NC(CF)CF)cn3)n(C3CCC3)c2n1` [Cpd 42, 2-(3-cyano-1-cyclobutyl-6-methoxy-1H-pyrrolo[2,3-b]pyridin-2-yl)-N-(1,3-difluoropropan-2-yl)pyrimidine-5-sulfonamide]: the melting point is 229 to 230 °C. Also, the IC50 in series [1] was under 500 nM.

`NC(=O)c1c(-c2ccc(S(=O)(=O)NC3(C(F)(F)F)CC3)cc2)n(C2CCCC2)c2ncc(C(F)(F)F)cc12` [Cpd 408, 1-cyclopentyl-5-(trifluoromethyl)-2-(4-{[1-(trifluoromethyl)cyclopropyl]sulfamoyl}phenyl)-1H-pyrrolo[2,3-b]pyridine-3-carboxamide] displayed a melting point of 277 to 279 °C. In series [1], this compound gave an IC50 of under 500 nM.

Compound `C[C@H](NS(=O)(=O)c1ccc(-c2c(C#N)c3cc(C(F)F)cnc3n2C2CCC2)nc1)C1CC1` [Cpd 458, 6-[3-cyano-1-cyclobutyl-5-(difluoromethyl)-1H-pyrrolo[2,3-b]pyridin-2-yl]-N-[(1S)-1-cyclopropylethyl]pyridine-3-sulfonamide] registered a melting point of 164 to 165 °C. In addition, the IC50 in series [1] is under 500 nM.

`CCc1cnc2c(c1)c(C#N)c(-c1ccc(S(=O)(=O)N[C@@H](C)C(F)(F)F)cn1)n2-c1ccc(F)cc1` [Cpd 510, 6-[3-cyano-5-ethyl-1-(4-fluorophenyl)-1H-pyrrolo[2,3-b]pyridin-2-yl]-N-[(2S)-1,1,1-trifluoropropan-2-yl]pyridine-3-sulfonamide] yielded a melting point of 212 to 214 °C. Besides, in series [1], the half-inhibitory concentration (IC50) is under 500 nM.

`COc1cc2c(C#N)c(-c3ccc(S(=O)(=O)N[C@H](C)C(F)(F)F)cn3)n(C3CCC3)c2nc1C` [Cpd 243, 6-(3-cyano-1-cyclobutyl-5-methoxy-6-methyl-1H-pyrrolo[2,3-b]pyridin-2-yl)-N-[(2R)-1,1,1-trifluoropropan-2-yl]pyridine-3-sulfonamide] registered a melting point of 175 to 177 °C. Moreover, the IC50 in series [1] lay within 2000 to 5000 nM.

In turn, `CC(C)S(=O)(=O)Nc1ccc(-c2c(C#N)c3cc(C(F)F)cnc3n2C2CCC2)cc1` [Cpd 459, N-{4-[3-cyano-1-cyclobutyl-5-(difluoromethyl)-1H-pyrrolo[2,3-b]pyridin-2-yl]phenyl}propane-2-sulfonamide] came in with a melting point of 179 to 180 °C. The compound further came in with an IC50 in series [1] of under 500 nM.

`C[C@@H](NS(=O)(=O)c1ccc(-c2c(C#N)c3cc(-c4cccs4)cnc3n2C2CCC2)nc1)C(F)(F)F` [Cpd 238, 6-[3-cyano-1-cyclobutyl-5-(thiophen-2-yl)-1H-pyrrolo[2,3-b]pyridin-2-yl]-N-[(2R)-1,1,1-trifluoropropan-2-yl]pyridine-3-sulfonamide] showed a melting point of 198 to 199 °C. In series [1], this compound returned an IC50 of 2000 to 5000 nM.

The compound `Cc1cnc2c(C#N)c(-c3ncc(S(=O)(=O)NC(C)C)cn3)n(C3CCCC3)c2c1` [Cpd 178, 2-(3-cyano-1-cyclopentyl-6-methyl-1H-pyrrolo[3,2-b]pyridin-2-yl)-N-(propan-2-yl)pyrimidine-5-sulfonamide] showed a melting point of 263 to 265 °C. In addition, the IC50 in series [1] was under 500 nM.

Take `CCCn1c(-c2ccc(S(=O)(=O)N[C@@H](C)C(F)(F)F)cn2)c(C#N)c2cc(C)cnc21` [Cpd 492, 6-(3-cyano-5-methyl-1-propyl-1H-pyrrolo[2,3-b]pyridin-2-yl)-N-[(2S)-1,1,1-trifluoropropan-2-yl]pyridine-3-sulfonamide]: the melting point is 145 to 149 °C. In series [1], this compound came in with an IC50 of under 500 nM.

Compound `Cc1cnc2c(C#N)c(-c3ccc(S(=O)(=O)NC(C)(C)C)cn3)n(C3CCC3)c2c1` [Cpd 211, N-tert-butyl-6-(3-cyano-1-cyclobutyl-6-methyl-1H-pyrrolo[3,2-b]pyridin-2-yl)pyridine-3-sulfonamide] yielded a melting point of 227 to 229 °C. The IC50 in series [1] was under 500 nM.

In the case of `C[C@@H](NS(=O)(=O)c1ccc(-c2c(C#N)c3cc(N4CCCC4)cnc3n2C2CCC2)nc1)C(F)(F)F` [Cpd 240, 6-[3-cyano-1-cyclobutyl-5-(pyrrolidin-1-yl)-1H-pyrrolo[2,3-b]pyridin-2-yl]-N-[(2R)-1,1,1-trifluoropropan-2-yl]pyridine-3-sulfonamide], the melting point fell in the range of 207 to 209 °C. The IC50 in series [1] was 500 to 2000 nM.

In turn, `C[C@H](NS(=O)(=O)c1ccc(-c2c(C#N)c3cc(Br)cnc3n2-c2cnccn2)nc1)C(F)(F)F` [Cpd 340, 6-[5-bromo-3-cyano-1-(pyrazin-2-yl)-1H-pyrrolo[2,3-b]pyridin-2-yl]-N-[(2S)-1,1,1-trifluoropropan-2-yl]pyridine-3-sulfonamide] gave a melting point of 247 to 248 °C. The compound further returned an IC50 in series [1] of under 500 nM.

On to `COc1cnc2c(c1)c(C(N)=O)c(-c1ccc(S(=O)(=O)N[C@@H](C)C(F)(F)F)cn1)n2C1CCCC1` [Cpd 357, 1-cyclopentyl-5-methoxy-2-(5-{[(2S)-1,1,1-trifluoropropan-2-yl]sulfamoyl}pyridin-2-yl)-1H-pyrrolo[2,3-b]pyridine-3-carboxamide], for which the melting point lay in the range of 263 to 264 °C. In series [1], this compound displayed an IC50 of under 500 nM.

The compound `CC(C)(C)NS(=O)(=O)c1ccc(-c2c(C#N)c3cc(F)cnc3n2-c2ccc(F)cc2)nc1` [Cpd 520, N-tert-butyl-6-[3-cyano-5-fluoro-1-(4-fluorophenyl)-1H-pyrrolo[2,3-b]pyridin-2-yl]pyridine-3-sulfonamide] displayed a melting point of 259.1 to 260.7 °C. For the same compound, in series [1], the IC50 lay within 2000 to 5000 nM.

As for `C[C@H](NS(=O)(=O)c1ccc(-c2c(C(N)=O)c3cc(Cl)cnc3n2C2CCCC2)nc1)C(F)(F)F` [Cpd 324, 5-chloro-1-cyclopentyl-2-(5-{[(2S)-1,1,1-trifluoropropan-2-yl]sulfamoyl}pyridin-2-yl)-1H-pyrrolo[2,3-b]pyridine-3-carboxamide], the melting point lay within 289 to 295 °C. In series [1], this compound registered an IC50 of under 500 nM.

Compound `N#Cc1c(-c2ccc(NS(=O)(=O)C3CCC3)cc2)n(C2CCCCC2)c2ncc(C(F)(F)F)cc12` [Cpd 428, N-{4-[3-cyano-1-cyclohexyl-5-(trifluoromethyl)-1H-pyrrolo[2,3-b]pyridin-2-yl]phenyl}cyclobutanesulfonamide] gave a melting point of 234 to 236 °C. In addition, the IC50 in series [1] is under 500 nM.

For the compound `Cc1cnc2c(c1)c(C#N)c(-c1ccc(S(=O)(=O)N[C@@H](C)C(F)(F)F)cc1)n2CC(C)C` [Cpd 488, 4-[3-cyano-5-methyl-1-(2-methylpropyl)-1H-pyrrolo[2,3-b]pyridin-2-yl]-N-[(2S)-1,1,1-trifluoropropan-2-yl]benzenesulfonamide], the melting point is 168 to 176 °C. The compound also showed an IC50 in series [1] of under 500 nM.

In turn, `CCOc1cnc2c(c1)c(C#N)c(-c1ccc(S(=O)(=O)N[C@H](C)C(F)(F)F)cn1)n2C1CCC1` [Cpd 203, 6-(3-cyano-1-cyclobutyl-5-ethoxy-1H-pyrrolo[2,3-b]pyridin-2-yl)-N-[(2R)-1,1,1-trifluoropropan-2-yl]pyridine-3-sulfonamide] displayed a melting point of 180 to 181 °C. For the same compound, the IC50 in series [1] was under 500 nM.

Compound `CCc1nc2c(cc1OC)c(C#N)c(-c1ccc(S(=O)(=O)N[C@@H](C)C(F)(F)F)cn1)n2C1CCC1` [Cpd 258, 6-(3-cyano-1-cyclobutyl-6-ethyl-5-methoxy-1H-pyrrolo[2,3-b]pyridin-2-yl)-N-[(2S)-1,1,1-trifluoropropan-2-yl]pyridine-3-sulfonamide] returned a melting point of 186 to 189 °C. The compound also displayed an IC50 in series [1] of under 500 nM.

For `C[C@H](NS(=O)(=O)c1ccc(-c2c(C#N)c3cc(C#N)cnc3n2C2CCC2)nc1)C(F)(F)F` [Cpd 108, 6-(3,5-dicyano-1-cyclobutyl-1H-pyrrolo[2,3-b]pyridin-2-yl)-N-[(2S)-1,1,1-trifluoropropan-2-yl]pyridine-3-sulfonamide], the melting point is 203 to 204 °C. The compound also gave an IC50 in series [1] of under 500 nM.

As to `CSc1cnc2c(c1)c(C(N)=O)c(-c1ccc(NS(=O)(=O)C(C)C)cc1)n2C1CCCC1` [Cpd 358, 1-cyclopentyl-5-(methylsulfanyl)-2-{4-[(propan-2-ylsulfonyl)amino]phenyl}-1H-pyrrolo[2,3-b]pyridine-3-carboxamide], the melting point was in the range of 250 to 252 °C. The compound further gave an IC50 in series [1] of under 500 nM.

In turn, `Cc1cc2c(C#N)c(-c3ccc(S(=O)(=O)NC4(C)CC4)cn3)n(C3CCC3)c2cn1` [Cpd 168, 6-(3-cyano-1-cyclobutyl-5-methyl-1H-pyrrolo[2,3-c]pyridine-2-yl)-N-(1-methylcyclopropyl)pyridine-3-sulfonamide] registered a melting point of 185 to 190 °C. For the same compound, in series [1], the IC50 is under 500 nM.

Compound `C[C@H](NS(=O)(=O)c1ccc(-c2c(C#N)c3cc(F)cnc3n2-c2cc(F)ccn2)nc1)C(F)(F)F` [Cpd 461, 6-[3-cyano-5-fluoro-1-(4-fluoropyridin-2-yl)-1H-pyrrolo[2,3-b]pyridin-2-yl]-N-[(2S)-1,1,1-trifluoropropan-2-yl]pyridine-3-sulfonamide] came in with a melting point of 186 to 188 °C. In series [1], this compound came in with an IC50 of under 500 nM.

The compound `C[C@H](NS(=O)(=O)c1ccc(-c2c(C#N)c3cc(Cl)cnc3n2-c2nccs2)nc1)C(F)(F)F` [Cpd 429, 6-[5-chloro-3-cyano-1-(1,3-thiazol-2-yl)-1H-pyrrolo[2,3-b]pyridin-2-yl]-N-[(2S)-1,1,1-trifluoropropan-2-yl]pyridine-3-sulfonamide] returned a melting point of 181 to 183 °C. The compound also showed an IC50 in series [1] of under 500 nM.

In turn, `CC(C)(NS(=O)(=O)c1ccc(-c2c(C#N)c3cc(C(F)(F)F)cnc3n2C2CCC2)nc1)C(F)(F)F` [Cpd 395, 6-[3-cyano-1-cyclobutyl-5-(trifluoromethyl)-1H-pyrrolo[2,3-b]pyridin-2-yl]-N-(1,1,1-trifluoro-2-methylpropan-2-yl)pyridine-3-sulfonamide] had a melting point of 174 to 176 °C. The compound also had an IC50 in series [1] of under 500 nM.
